One may read the IC50 as the concentration that inhibits the measured activity by half. A low value points to inhibition by little substance.

In assay [1] the target is PIK3CA (human) (UniProt P42336). Kind of assay: Inhibition of PIK3CA Kinase Activity.
For assay [2], the target named is PIK3CG (human) (UniProt P48736). Kind of assay: Inhibition of PIK3CG Kinase Activity.
Sequence of PIK3CG (human) (P48736 whole entry, looked up): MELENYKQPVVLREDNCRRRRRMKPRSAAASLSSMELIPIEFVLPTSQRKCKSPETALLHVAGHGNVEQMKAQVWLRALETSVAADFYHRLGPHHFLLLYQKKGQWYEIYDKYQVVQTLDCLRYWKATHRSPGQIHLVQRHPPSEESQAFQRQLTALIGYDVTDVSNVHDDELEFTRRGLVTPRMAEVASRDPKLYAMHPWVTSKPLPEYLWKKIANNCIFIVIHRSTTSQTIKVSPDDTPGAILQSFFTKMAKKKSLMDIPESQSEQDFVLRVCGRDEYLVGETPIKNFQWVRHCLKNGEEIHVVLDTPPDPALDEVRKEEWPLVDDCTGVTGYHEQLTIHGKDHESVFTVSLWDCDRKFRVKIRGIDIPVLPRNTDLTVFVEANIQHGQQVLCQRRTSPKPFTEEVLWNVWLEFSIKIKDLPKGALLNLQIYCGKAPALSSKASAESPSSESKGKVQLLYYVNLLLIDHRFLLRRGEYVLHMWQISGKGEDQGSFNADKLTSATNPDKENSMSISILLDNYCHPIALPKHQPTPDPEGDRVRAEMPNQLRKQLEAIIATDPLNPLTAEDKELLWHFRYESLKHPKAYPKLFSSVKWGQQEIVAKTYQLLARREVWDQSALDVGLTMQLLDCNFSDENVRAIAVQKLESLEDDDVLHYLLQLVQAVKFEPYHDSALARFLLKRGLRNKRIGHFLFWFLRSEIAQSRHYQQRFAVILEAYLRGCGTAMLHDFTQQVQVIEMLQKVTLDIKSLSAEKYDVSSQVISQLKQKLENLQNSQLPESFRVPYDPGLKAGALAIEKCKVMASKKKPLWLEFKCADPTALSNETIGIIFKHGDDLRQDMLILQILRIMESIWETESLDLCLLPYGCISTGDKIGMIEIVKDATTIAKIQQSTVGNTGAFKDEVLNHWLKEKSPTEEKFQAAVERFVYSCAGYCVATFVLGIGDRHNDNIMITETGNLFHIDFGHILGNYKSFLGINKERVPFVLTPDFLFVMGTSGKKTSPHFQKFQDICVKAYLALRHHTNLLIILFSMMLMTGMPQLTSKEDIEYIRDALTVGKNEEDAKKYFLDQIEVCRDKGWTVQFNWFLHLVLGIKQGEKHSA

Sequence of PIK3CA (human) (P42336 whole entry, looked up): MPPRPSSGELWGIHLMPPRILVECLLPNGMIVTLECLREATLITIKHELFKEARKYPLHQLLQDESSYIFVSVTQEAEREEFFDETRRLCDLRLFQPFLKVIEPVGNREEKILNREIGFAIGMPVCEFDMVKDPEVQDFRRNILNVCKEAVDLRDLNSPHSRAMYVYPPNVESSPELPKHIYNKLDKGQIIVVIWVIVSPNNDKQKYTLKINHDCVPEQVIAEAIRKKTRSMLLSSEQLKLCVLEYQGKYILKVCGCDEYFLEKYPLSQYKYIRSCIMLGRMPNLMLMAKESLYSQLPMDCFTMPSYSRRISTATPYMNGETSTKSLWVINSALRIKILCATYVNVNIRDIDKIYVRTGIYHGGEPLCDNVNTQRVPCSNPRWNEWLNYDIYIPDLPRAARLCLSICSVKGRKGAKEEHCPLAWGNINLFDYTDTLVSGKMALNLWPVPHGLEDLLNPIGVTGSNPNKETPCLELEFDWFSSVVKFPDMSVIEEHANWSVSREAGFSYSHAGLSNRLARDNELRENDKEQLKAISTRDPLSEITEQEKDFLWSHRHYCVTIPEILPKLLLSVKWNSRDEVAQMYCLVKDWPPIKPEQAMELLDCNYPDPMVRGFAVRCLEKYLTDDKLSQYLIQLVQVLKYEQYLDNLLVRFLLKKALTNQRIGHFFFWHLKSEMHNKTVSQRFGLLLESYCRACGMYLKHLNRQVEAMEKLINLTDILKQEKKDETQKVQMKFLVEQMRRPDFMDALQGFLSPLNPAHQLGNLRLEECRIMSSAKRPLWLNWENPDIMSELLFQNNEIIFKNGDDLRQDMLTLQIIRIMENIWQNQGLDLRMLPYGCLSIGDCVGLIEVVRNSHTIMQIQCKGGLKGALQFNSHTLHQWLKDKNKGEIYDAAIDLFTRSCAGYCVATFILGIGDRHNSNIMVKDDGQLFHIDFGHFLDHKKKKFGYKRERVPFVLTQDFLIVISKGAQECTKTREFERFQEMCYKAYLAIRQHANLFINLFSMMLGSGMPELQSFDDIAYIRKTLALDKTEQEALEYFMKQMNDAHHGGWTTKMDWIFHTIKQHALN

`CCn1nnc2c(N3CCOCC3)nc(-c3ccc(NC(=O)Nc4ccc(C(=O)O)nc4)cc3)nc21`: the IC50 in assay [1] is 490 nM; in assay [2], 3.3 nM. As for `CCn1nnc2c(N3CCOCC3)nc(-c3ccc(NC(=O)Nc4ccc(NC(=O)NCc5ccccn5)cc4)cc3)nc21`, the 50% inhibitory concentration (IC50) turned out to be 594 nM in assay [1] and 3.3 nM in assay [2]. Compound `CC(C)n1nnc2c(N3CCOCC3)nc(-c3ccc(NC(=O)Nc4ccc(C(=O)N5CCN(C)CC5)cc4)cc3)nc21` yielded a half-maximal inhibitory concentration (IC50) in assay [1] of 585 nM. `CCn1nnc2c(N3CCOCC3)nc(-c3ccc(NC(=O)Nc4ccc(NC(=O)NCCN(C)C)cc4)cc3)nc21`: the results for the IC50 in assay [1] and in assay [2] were 574 nM and 1.65 nM, respectively. For `CN(C)CCNC(=O)c1ccc(NC(=O)Nc2ccc(-c3nc(N4CCOCC4)c4nnn(-c5cccc(C(N)=O)c5)c4n3)cc2)cc1` the same measures were 650 nM and 0.8 nM.

`CCn1nnc2c(N3CCOC[C@@H]3C)nc(-c3ccc(NC(=O)Nc4ccc(C(=O)NCCN5CCCCC5)cc4)cc3)nc21`: the IC50 in assay [1] was determined as 613 nM. Same read-out and setting: the value for `CCn1nnc2c(N3CCOCC3)nc(-c3ccc(NC(=O)Nc4ccc(NC(=O)N5CCOCC5)cc4)cc3)nc21` was 573 nM; that for `CCn1nnc2c(N3CCOCC3)nc(-c3ccc(NC(=O)Nc4ccc(NCc5ccc(OC)nc5)cc4)cc3)nc21` was 581 nM. In the case of `CCn1nnc2c(N3CCOCC3)nc(-c3ccc(NC(=O)Nc4ccc(C(=O)N(C)CCN(C)C)nc4)cc3)nc21`, the IC50 in assay [1] was 560 nM; in assay [2] it was 1.85 nM. In the case of `CCn1nnc2c(N3CCOCC3)nc(-c3ccc(NC(=O)Nc4ccc(C(=O)NN(C)C)cc4)cc3)nc21`, the IC50 in assay [1] came out at 531 nM; in assay [2] it was 8 nM. For `CCn1nnc2c(N3CCOCC3)nc(-c3ccc(NC(=O)Nc4ccc(NC(=O)N5CCCN(C)CC5)cc4)cc3)nc21` the same measures were 600 nM and 1.65 nM. With `CCn1nnc2c(N3CCOCC3)nc(-c3ccc(NC(=O)Nc4ccc(NC(=O)NCCOC)cc4)cc3)nc21`, in assay [1], the 50% inhibitory concentration (IC50) stood at 561 nM. Take `Oc1cccc(-c2nc(N3CCOCC3)c3nnn(CCCCN4CCN(Cc5ccccc5)CC4)c3n2)c1`: the IC50 came to 116 nM in assay [1] and 216 nM in assay [2].

In the case of `CCn1nnc2c(N3CCOCC3)nc(-c3ccc(NC(=O)Nc4ccc(C(=O)Nc5cccnc5)cc4)cc3)nc21`, the concentration for half-maximal inhibition (IC50) in assay [1] is 565 nM; in assay [2], 1.85 nM. In the case of `O=C(Nc1ccncc1)Nc1ccc(-c2nc(N3CCOCC3)c3nnn(CCO)c3n2)cc1`, the results for the concentration for half-maximal inhibition (IC50) in assay [1] and in assay [2] were 5.3 nM and 20 nM, respectively. For `CCn1nnc2c(N3CCOC[C@@H]3C)nc(-c3ccc(NC(=O)Nc4ccc(C(=O)NCCN5CCCC5)cc4)cc3)nc21`, the IC50 in assay [1] was 599 nM. Consider `CCn1nnc2c(N3CCOCC3)nc(-c3ccc(NC(=O)Nc4ccc(NCc5ccncc5)cc4)cc3)nc21`, for which the IC50 in assay [1] turned out to be 552 nM. For `CCn1nnc2c(N3CCOCC3)nc(-c3ccc(NC(=O)Nc4ccc(NC(=O)N5CCC(N6CCCC6)CC5)cc4)cc3)nc21`, the results for the half-maximal inhibitory concentration (IC50) in assay [1] and in assay [2] were 640 nM and 0.75 nM, respectively. As to `CCn1nnc2c(N3CCOCC3)nc(-c3ccc(NC(=O)Nc4ccc(NC(=O)N(C)CCN(C)C)cc4)cc3)nc21`, the IC50 came to 588 nM in assay [1] and 1.65 nM in assay [2]. On the same counts, the results for `CN(C)CCNC(=O)c1ccc(NC(=O)Nc2ccc(-c3nc(N4CCOCC4)c4nnn(-c5cccc(C(=O)O)c5)c4n3)cc2)cc1` are 651 nM and 0.95 nM. For `Oc1cccc(-c2nc(N3CCOCC3)c3nnn(C4CCN(Cc5ccc[nH]5)CC4)c3n2)c1` the same measures were 62 nM and 426 nM. On the same counts, the results for `CCn1nnc2c(N3CCOCC3)nc(-c3ccc(NC(=O)Nc4ccc(NC(=O)c5cccc(N(C)C)c5)cc4)cc3)nc21` are 607 nM and 1.83 nM. As to `CCn1nnc2c(N3CCOCC3)nc(-c3ccc(NC(=O)Nc4ccc(NC(=O)NC5CCN(C)CC5)cc4)cc3)nc21`, the half-maximal inhibitory concentration (IC50) worked out at 601 nM in assay [1] and 1.7 nM in assay [2]. On the same counts, the results for `CCn1nnc2c(N3CCOCC3)nc(-c3ccc(NC(=O)Nc4ccc(N)cc4)cc3)nc21` are 460 nM and 7.33 nM. For `CC(C)n1nnc2c(N3CCOCC3)nc(-c3ccc(NC(=O)Nc4ccc([N+](=O)[O-])cc4)cc3)nc21`, the IC50 in assay [1] is 504 nM. On the same count and under the same terms, the figure for `CC(C)n1nnc2c(N3CCOCC3)nc(-c3ccc(NC(=O)Nc4ccc(N)cc4)cc3)nc21` is 473 nM. `CC(C)n1nnc2c(N3CCOCC3)nc(-c3ccc(NC(=O)Nc4ccc(NS(C)(=O)=O)cc4)cc3)nc21` came in with a concentration for half-maximal inhibition (IC50) in assay [1] of 552 nM. In turn, `CCn1nnc2c(N3CCOC[C@@H]3C)nc(-c3ccc(NC(=O)Nc4ccc(C(=O)N5CCC(N(C)C)CC5)cc4)cc3)nc21` returned a half-maximal inhibitory concentration (IC50) in assay [1] of 613 nM. Turning to `CCn1nnc2c(N3CCOC[C@@H]3C)nc(-c3ccc(NC(=O)Nc4ccc(C(=O)N5CCN(C)CC5)cc4)cc3)nc21`, the 50% inhibitory concentration (IC50) stood at 585 nM in assay [1] and 2.15 nM in assay [2]. On the same counts, the results for `CCn1nnc2c(N3CCOC[C@@H]3C)nc(-c3ccc(NC(=O)Nc4ccc(C(=O)NCCN(C)C)cc4)cc3)nc21` are 573 nM and 1.85 nM. For `CCn1nnc2c(N3CCOC[C@@H]3C)nc(-c3ccc(NC(=O)Nc4ccc(C(=O)N(C)CCN(C)C)cc4)cc3)nc21`, the IC50 in assay [1] came to 587 nM; in assay [2], 2.2 nM. Take `CCn1nnc2c(N3CCOCC3)nc(-c3ccc(NC(=O)Nc4ccc(NCc5ccc(F)nc5)cc4)cc3)nc21`: the 50% inhibitory concentration (IC50) in assay [1] came out at 569 nM. As for `CCN1CCN(C(=O)Nc2ccc(NC(=O)Nc3ccc(-c4nc(N5CCOCC5)c5nnn(CC)c5n4)cc3)cc2)CC1`, the half-inhibitory concentration (IC50) stood at 600 nM in assay [1] and 0.9 nM in assay [2].

`CCn1nnc2c(N3CCOCC3)nc(-c3ccc(NC(=O)Nc4ccc(NCc5cccnc5)cc4)cc3)nc21`: the IC50 in assay [1] worked out at 552 nM; in assay [2], 3.3 nM.

As for `CCn1nnc2c(N3CCOCC3)nc(-c3ccc(NC(=O)Nc4ccc(NC(=O)CN(C)C)cc4)cc3)nc21`, the IC50 in assay [1] amounted to 574 nM; in assay [2], 1.33 nM. For the compound `CCn1nnc2c(N3CCOCC3)nc(-c3ccc(NC(=O)Nc4ccc(NC(=O)NCCN5CCCC5)cc4)cc3)nc21`, the IC50 in assay [1] is 601 nM; in assay [2] it was 1.7 nM.

Take `CCn1nnc2c(N3CCOCC3)nc(-c3ccc(NC(=O)Nc4ccc(CN5CCN(C)CC5)cc4)cc3)nc21`: the values for the IC50 in assay [1] and in assay [2] were 557 nM and 1.35 nM, respectively. For the compound `CC(C)(C)OC(=O)N1CC(n2nnc3c(N4CCOCC4)nc(-c4ccc(NC(=O)Nc5ccccc5)cc4)nc32)C1`, the IC50 is 58 nM in assay [1] and 790 nM in assay [2].

Turning to `CCn1nnc2c(N3CCOCC3)nc(-c3ccc(NC(=O)Nc4ccc(NC(=O)N5CCN(C)CC5)cc4)cc3)nc21`, the figures for the IC50 in assay [1] and in assay [2] were 586 nM and 1.85 nM, respectively. In the case of `CCn1nnc2c(N3CCOCC3)nc(-c3ccc(NC(=O)Nc4ccc(NC(=O)N5CCNCC5)cc4)cc3)nc21`, the IC50 in assay [1] is 573 nM; in assay [2] it was 1.7 nM.

Regarding `CCn1nnc2c(N3CCOCC3)nc(-c3ccc(NC(=O)Nc4ccc(C(=O)OC)nc4)cc3)nc21`, the IC50 in assay [1] is 504 nM. Compound `CCn1nnc2c(N3CCOCC3)nc(-c3ccc(NC(=O)Nc4ccc([N+](=O)[O-])cc4)cc3)nc21` had a concentration for half-maximal inhibition (IC50) in assay [1] of 490 nM. `CCn1nnc2c(N3CCOCC3)nc(-c3ccc(NC(=O)Nc4ccc(C(=O)N5CCN(C)CC5)nc4)cc3)nc21` gave an IC50 in assay [1] of 572 nM. Turning to `CCn1nnc2c(N3CCOCC3)nc(-c3ccc(NC(=O)Nc4ccc(NC(=O)N5CCC(N(C)C)CC5)cc4)cc3)nc21`, the 50% inhibitory concentration (IC50) in assay [1] amounted to 614 nM; in assay [2] it was 1.45 nM.

Regarding `CCn1nnc2c(N3CCOCC3)nc(-c3ccc(NC(=O)Nc4ccc(NC(=O)c5ccncc5)cc4)cc3)nc21`, the figures for the IC50 in assay [1] and in assay [2] were 565 nM and 1.85 nM, respectively.

For the compound `CC(C)n1nnc2c(N3CCOCC3)nc(-c3ccc(NC(=O)Nc4ccc(C(=O)NCCN(C)C)cc4)cc3)nc21`, the IC50 in assay [1] came to 572 nM; in assay [2], 2 nM. `CCn1nnc2c(N3CCOCC3)nc(-c3ccc(NC(=O)Nc4ccc(N5CCN(C)CC5)cc4)cc3)nc21` gave an IC50 in assay [1] of 543 nM. Turning to `CCn1nnc2c(N3CCOCC3)nc(-c3ccc(NC(=O)Nc4ccc(NC(=O)NCCN5CCN(C)CC5)cc4)cc3)nc21`, the IC50 in assay [1] was 629 nM; in assay [2], 1.8 nM. In assay [1], `CC(C)n1nnc2c(N3CCOCC3)nc(-c3ccc(NC(=O)Nc4ccc(N5CCN(C)CC5)cc4)cc3)nc21` returned an IC50 of 558 nM.

The values above are taken from the Kinase Knowledgebase extract (Sharma et al. 2016).
